{
  "source": "patent US9745305B2",
  "about": "“Modulators of methyl modifying enzymes, compositions and uses thereof” (Constellation Pharmaceuticals, Inc., priority 2013, dated 2017)",
  "key": {"Y641N EZH2": {"molecular_target": "Y641N EZH2 (Homo sapiens, UniProt Q15910, Y641N)", "sequence (Q15910 whole entry Y641N)": "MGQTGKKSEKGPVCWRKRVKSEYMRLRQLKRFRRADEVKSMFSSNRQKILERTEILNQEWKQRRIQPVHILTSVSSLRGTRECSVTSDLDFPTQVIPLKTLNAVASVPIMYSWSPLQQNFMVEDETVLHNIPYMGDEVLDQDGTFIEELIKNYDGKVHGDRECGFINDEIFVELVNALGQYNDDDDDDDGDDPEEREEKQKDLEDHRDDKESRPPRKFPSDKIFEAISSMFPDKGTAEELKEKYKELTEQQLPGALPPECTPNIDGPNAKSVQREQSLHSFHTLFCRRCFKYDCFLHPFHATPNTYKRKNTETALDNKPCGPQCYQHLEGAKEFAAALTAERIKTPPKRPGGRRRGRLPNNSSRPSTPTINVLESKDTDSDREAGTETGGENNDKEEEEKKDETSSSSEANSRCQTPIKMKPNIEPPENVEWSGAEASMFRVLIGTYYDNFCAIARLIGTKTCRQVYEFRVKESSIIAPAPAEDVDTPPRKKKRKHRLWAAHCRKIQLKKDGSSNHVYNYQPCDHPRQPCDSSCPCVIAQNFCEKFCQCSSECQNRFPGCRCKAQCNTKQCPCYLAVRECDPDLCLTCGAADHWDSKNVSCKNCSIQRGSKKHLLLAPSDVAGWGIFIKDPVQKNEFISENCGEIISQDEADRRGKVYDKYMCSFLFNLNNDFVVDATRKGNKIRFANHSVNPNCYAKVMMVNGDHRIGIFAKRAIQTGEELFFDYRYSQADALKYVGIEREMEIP", "sequence (O75530 whole entry partner)": "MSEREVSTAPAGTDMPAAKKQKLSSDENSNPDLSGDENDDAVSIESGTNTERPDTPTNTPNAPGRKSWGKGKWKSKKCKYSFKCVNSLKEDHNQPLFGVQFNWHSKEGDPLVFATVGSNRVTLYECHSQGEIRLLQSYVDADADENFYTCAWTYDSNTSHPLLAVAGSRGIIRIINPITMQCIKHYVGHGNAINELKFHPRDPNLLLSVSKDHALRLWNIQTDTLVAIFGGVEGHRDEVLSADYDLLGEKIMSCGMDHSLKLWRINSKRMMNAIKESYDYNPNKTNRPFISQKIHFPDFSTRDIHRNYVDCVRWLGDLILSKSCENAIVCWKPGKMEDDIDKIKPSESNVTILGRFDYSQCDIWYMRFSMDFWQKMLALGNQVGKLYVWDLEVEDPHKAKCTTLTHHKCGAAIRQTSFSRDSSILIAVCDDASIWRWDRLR", "sequence (Q15022 whole entry partner)": "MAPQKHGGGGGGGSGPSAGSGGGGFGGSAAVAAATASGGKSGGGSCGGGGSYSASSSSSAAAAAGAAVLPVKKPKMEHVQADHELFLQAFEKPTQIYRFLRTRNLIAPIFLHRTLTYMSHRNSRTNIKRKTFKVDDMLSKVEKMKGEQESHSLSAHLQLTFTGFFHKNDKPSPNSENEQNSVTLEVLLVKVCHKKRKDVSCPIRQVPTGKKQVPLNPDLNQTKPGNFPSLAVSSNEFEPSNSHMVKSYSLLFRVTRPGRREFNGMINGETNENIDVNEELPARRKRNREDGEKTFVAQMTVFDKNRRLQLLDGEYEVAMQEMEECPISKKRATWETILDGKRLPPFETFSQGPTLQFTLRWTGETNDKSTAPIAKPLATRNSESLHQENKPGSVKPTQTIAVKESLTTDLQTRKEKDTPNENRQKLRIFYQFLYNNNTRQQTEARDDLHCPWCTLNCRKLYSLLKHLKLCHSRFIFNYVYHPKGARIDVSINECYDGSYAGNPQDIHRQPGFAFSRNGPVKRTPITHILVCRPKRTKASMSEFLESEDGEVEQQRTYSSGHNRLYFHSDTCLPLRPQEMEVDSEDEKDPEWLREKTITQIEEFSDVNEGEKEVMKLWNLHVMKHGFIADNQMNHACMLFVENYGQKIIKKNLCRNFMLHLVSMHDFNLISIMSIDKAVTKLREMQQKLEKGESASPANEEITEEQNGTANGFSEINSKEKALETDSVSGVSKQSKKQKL", "assay": "Assay for Y641N EZH2 (as the EZH2 assay, H3K27Me2 oligonucleosomes as substrate)", "type": "biochemical", "details": "Y641N EZH2 mutant, reconstituted H3K27Me2 oligonucleosomes as substrate", "in_short": "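rPRC2 (2 nM EZH2) with 0.2 μM reconstituted H3K27Me2 biotinylated oligonucleosomes, 3.6 μM H3K27me3 peptide, 0.2 μM ^3H SAM in Tris pH 8.5; compounds (80 to 0.16 μM, 2-fold) pre-incubated 20 min, reaction 60 min, SAH/EDTA quench. Tritiated product captured on streptavidin plates, scintillation counted; IC50 from 4-parameter fit.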"}, "[1]": {"test_system": "H3K27me3 mark in Hela cells expressing wild type EZH2", "assay": "H3K27me3 MSD Hela Assay", "type": "cell-based", "details": "Homo sapiens, HeLa, 96 h, read-out: H3K27me3_MSD_HeLa (EC50)", "method": "H3K27me3 MSD Hela Assay. Trypsinized HeLa cells were counted and diluted in 10% DMEM (Life Technologies, Cat. #10569) to 5000 cells/75 μL. Seventy-five μL of cells were place in each well of a 96-well flat-bottomed plate and incubated at 37° C. for 4 hours. Twenty-five μL of test compound (at various concentrations) was added to the cells and incubation continued at 37° C. for 96 hours. Media was then removed and the cells rinsed once with ice cold PBS. Forty μL of ice-cold MSD Buffer AT (10 mM HEPES, pH 7.9, 5 mM MgCl2, 0.25M sucrose, Benzonase (1:10000), 1% Triton X-100 supplemented with fresh 1× Protease Inhibitor cocktail and 1 mM 4-(2-Aminoethyl)benzenesulfonyl fluoride hydrochloride (AEBSF)) was added to each well and the plates placed on ice for 30 minutes. Ten μL of 5M NaCl was then added to each well and incubation on ice continued for another 15 minutes. The material in each well was suspended pipetting up and down and then transferred to a new 96 well plate. The emptied wells were rinsed with 150 uL ice-cold 20 mM Tris pH 7.5, 1 mM EDTA, 1 mM EGTA, supplemented with fresh 1× Protease Inhibitor cocktail and 1 mM AEBSF (“NO salt NO detergent buffer) and transferred to the respective wells in the new plate. Three hundred μL of NO Salt NO detergent buffer was then added to each well of lysates and the plates frozen at −80° C.\nOn the same day, an appropriate number of MSD standard bind 96-well plates were coated with 30 μL/well of total H3 capture antibody (Millipore, Cat # MAB3422) at 1 μg/mL concentration in PBS. The antibody solution was evenly distributed first by tapping gently on the sides of the plates and then by shaking the plates for a few minutes at 1000 rpm. Antibody coated plates were stored at 4° C. overnight.\nThe next day the lysates are thawed to RT. The antibody coated MSD plates are washed 3× with TBS-T (Tris-buffered saline (Fisher Scientific, Cat #BP2471-1)+0.2% Tween-20). One-hundred fifty μL of 5% Blocker A in TBS-T is added to each well. The wells are covered and shaken on a shaker at RT for one hour. The Blocker A step is repeated a second time. After removing the blocker, 25 μL of cell lysate is transferred into each antibody coated well. The plates are shaken for 2 hours at RT, the lysate removed and the plates again washed with Blocker A in TBS-T. Twenty-five μL of appropriate freshly prepared antibody mix (including both primary and secondary antibodies) is added to each well and the plates shaken for 1 hour at RT.\nBoth H3 antibodies were obtained from Cell Signalling (Cat #s 4499 and 9733). The goat anti-rabbit antibody was obtained from Meso-Scale Discovery (Cat #R32AB-1).\nThe antibody mix was then removed and the wells washed with Blocker A. One hundred-fifty μL of freshly prepared 1×MSD Read Buffer (Meso-Scale Discovery; Cat #R927C-2) was then added to each well and the plates read on a MSD Sector 2400 Plate Reader.\nData was analyzed using Assay Assistant (Constellation Pharmaceuticals In-house product) and Activity Base (IDBS Ltd, Surrey, UK) template. Data files were imported to Assay Assistant and assay conditions were specified. A unique Analysis ID was created and the data files exported to Activity Base. An analysis template was created on Activity Base to measure dose-dependent inhibition of H3K27me3 mark and cell viability respectively. Readout of DMSO wells were used to normalize the data. Resulting curves were fitted using Activity base software Model 205 (IDBS Ltd, Surrey, UK). The data was checked for quality, validated and integrated in excel format using SARview (IDBS Ltd, Surrey, UK)."}},
  "data": [
    {"smiles": "COc1cc(C)[nH]c(=O)c1CNC(=O)c1c(C)c(C(C)c2ccccc2)n2ncccc12", "note": "(racemic) [Compound 101, (±)-N-((4-methoxy-6-methyl-2-oxo-1,2-dihydropyridin-3-yl)methyl)-6-methyl-7-(1-phenylethyl)pyrrolo[1,2-b]pyridazine-5-carboxamide]", "values": [
      {"measurement": "IC50", "setting": "Y641N EZH2", "value": "< 100", "unit": "nM"},
      {"measurement": "EC50", "setting": "[1]", "value": "< 400", "unit": "nM"}
    ]},
    {"smiles": "COc1cc(C)[nH]c(=O)c1CNC(=O)c1c(C)c(C(C)C2CCOCC2)n2ncccc12", "note": "(racemic) [Compound 116, (±)-N-((4-methoxy-6-methyl-2-oxo-1,2-dihydropyridin-3-yl)methyl)-6-methyl-7-(1-(tetrahydro-2H-pyran-4-yl)ethyl)pyrrolo[1,2-b]pyridazine-5-carboxamide]", "values": [
      {"measurement": "IC50", "setting": "Y641N EZH2", "value": "< 100", "unit": "nM"},
      {"measurement": "EC50", "setting": "[1]", "value": "< 400", "unit": "nM"}
    ]},
    {"smiles": "COc1cc(C)[nH]c(=O)c1CNC(=O)c1c(C)c(C(C)c2ccccc2)n2ncccc12", "note": "(single isomer, unassigned) [Compound 105, (R or S)-N-((4-methoxy-6-methyl-2-oxo-1,2-dihydropyridin-3-yl)methyl)-6-methyl-7-(1-phenylethyl)pyrrolo[1,2-b]pyridazine-5-carboxamide]", "values": [
      {"measurement": "IC50", "setting": "Y641N EZH2", "value": "< 100", "unit": "nM"},
      {"measurement": "EC50", "setting": "[1]", "value": "< 400", "unit": "nM"}
    ]}
  ]
}
